Source: US20210101881A1 (Ancureall Pharmaceutical (Shanghai) Co., Ltd., priority 2018, published 2021)
Read-outs that look alike come from different tables or passages of the source.

Assays:
MOLM13 cells = assay: Growth inhibition of CDK9-positive cell line MOLM13 in vitro (CCK8/MTT assay); format: cell-based, human; conditions: Homo sapiens
CDK9/CyclinK kinase = molecular target: T1, CDK9/CyclinK kinase (Homo sapiens, UniProt P50750); assay: CDK9 protein kinase activity, ADP-Glo CDK9/CyclinK kinase detection kit; format: biochemical; conditions: read-out: IC50 of the compound for inhibiting CDK9 protein kinase activity, CDK9/CyclinK kinase
T1 construct: purchased Promega Corporation V4105
T1 sequence (P50750 whole entry): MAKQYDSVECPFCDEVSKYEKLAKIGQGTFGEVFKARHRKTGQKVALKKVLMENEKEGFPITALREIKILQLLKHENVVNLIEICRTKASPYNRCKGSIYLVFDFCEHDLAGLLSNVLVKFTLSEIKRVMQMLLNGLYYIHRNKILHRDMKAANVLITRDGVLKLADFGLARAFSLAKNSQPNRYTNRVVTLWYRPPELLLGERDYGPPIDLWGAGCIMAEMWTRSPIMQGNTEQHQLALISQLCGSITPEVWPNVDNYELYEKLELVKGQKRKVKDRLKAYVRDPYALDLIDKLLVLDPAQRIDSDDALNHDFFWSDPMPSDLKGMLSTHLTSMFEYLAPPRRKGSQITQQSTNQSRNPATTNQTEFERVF
T1 sequence (O75909 whole entry partner): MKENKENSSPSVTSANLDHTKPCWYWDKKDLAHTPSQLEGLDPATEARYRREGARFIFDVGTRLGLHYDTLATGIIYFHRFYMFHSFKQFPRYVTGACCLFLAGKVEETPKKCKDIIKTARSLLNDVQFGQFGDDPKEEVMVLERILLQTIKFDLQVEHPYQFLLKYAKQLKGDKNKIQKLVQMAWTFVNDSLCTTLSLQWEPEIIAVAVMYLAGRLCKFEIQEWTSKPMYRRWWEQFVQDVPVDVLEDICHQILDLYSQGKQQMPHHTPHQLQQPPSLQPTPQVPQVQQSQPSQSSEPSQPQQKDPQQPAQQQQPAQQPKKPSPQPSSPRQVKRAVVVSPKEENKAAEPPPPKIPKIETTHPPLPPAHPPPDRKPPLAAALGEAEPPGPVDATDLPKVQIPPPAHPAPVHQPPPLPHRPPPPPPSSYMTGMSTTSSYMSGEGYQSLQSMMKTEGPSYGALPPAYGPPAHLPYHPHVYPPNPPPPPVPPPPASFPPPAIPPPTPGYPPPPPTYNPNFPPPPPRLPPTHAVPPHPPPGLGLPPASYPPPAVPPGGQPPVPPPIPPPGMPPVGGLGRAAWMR
Protocol: Measurement of CDK9 Protein Kinase Activity
The present compound was dissolved in DMSO (Sigma Aldrich), and the initial concentration of the compound was 1000 nM. A two-fold serial dilution was carried out. The specific operation of CDK9 kinase activity determination was carried out according to the ADP-Go™ CDK9/CyclinK kinase detection experimental procedure. […] Each test sample was tested in duplicate, and the test was repeated once. The inhibitory activity (IC50) of the compound on CDK9 protein kinase was calculated from the dose-inhibition curve of the compound.

A375 = assay: Growth inhibition of CDK9-positive tumor cell line in vitro; format: cell-based; conditions: A-375, Human melanoma, read-out: Inhibitory activity (IC50) on growth in vitro, A375
Protocol: (§1) Measurement of the Inhibitory Activity of the Present Compound on the Growth of Various Types of CDK9-Positive Tumor Cell Lines In Vitro
(§2) The inventors selected representative CDK9-positive tumor cell lines for further determination of the compound activity. All cell lines used came from ATCC, JCRB, DSMZ and Chinese Academy of Sciences Cell Bank (ZK). Cell culture condition and method were based on the requirements of each cell line. No more than 3 passages were carried out in each culture in vitro. Monoclonal purification and STR identification of the cell line were conducted if necessary.

BT-549 = assay: as above; format: cell-based; conditions: Human breast cancer, read-out: Inhibitory activity (IC50) on growth in vitro, BT-549
Protocol: as §1, §2

CAL-120 = assay: as above; format: cell-based; conditions: Human breast cancer, read-out: Inhibitory activity (IC50) on growth in vitro, CAL-120
Protocol: as §1, §2

Colo205 = assay: as above; format: cell-based; conditions: COLO 205, Human intestinal cancer, read-out: Inhibitory activity (IC50) on growth in vitro, Colo205
Protocol: as §1, §2

HCC1954 = assay: as above; format: cell-based; conditions: Human breast cancer, read-out: Inhibitory activity (IC50) on growth in vitro, HCC1954
Protocol: as §1, §2

HCT-116 = assay: as above; format: cell-based; conditions: Human intestinal cancer, read-out: Inhibitory activity (IC50) on growth in vitro, HCT-116
Protocol: as §1, §2

HO8910PM = assay: as above; format: cell-based; conditions: Human ovarian cancer, read-out: Inhibitory activity (IC50) on growth in vitro, HO8910PM
Protocol: as §1, §2

KYSE70 = assay: as above; format: cell-based; conditions: KYSE-70, Human esophageal cancer, read-out: Inhibitory activity (IC50) on growth in vitro, KYSE70
Protocol: as §1, §2

Kasumi-1 = assay: as above; format: cell-based; conditions: Human acute myeloid leukemia, read-out: Inhibitory activity (IC50) on growth in vitro, Kasumi-1
Protocol: as §1, §2

LN229 = assay: as above; format: cell-based; conditions: LN-229, Human glioma, read-out: Inhibitory activity (IC50) on growth in vitro, LN229
Protocol: as §1, §2

MFM-223 = assay: as above; format: cell-based; conditions: Human breast cancer, read-out: Inhibitory activity (IC50) on growth in vitro, MFM-223
Protocol: as §1, §2

Pfeiffer = assay: as above; format: cell-based; conditions: Human B lymphocyte tumor, read-out: Inhibitory activity (IC50) on growth in vitro, Pfeiffer
Protocol: as §1, §2

SK-BR-3 = assay: as above; format: cell-based; conditions: Human breast cancer, read-out: Inhibitory activity (IC50) on growth in vitro, SK-BR-3
Protocol: as §1, §2

Sk-ov-3 = assay: as above; format: cell-based; conditions: Human ovarian cancer, read-out: Inhibitory activity (IC50) on growth in vitro, Sk-ov-3
Protocol: as §1, §2

NCI-H1993 = assay: as above; format: cell-based; conditions: Human lung cancer, read-out: Inhibitory activity (IC50) on growth in vitro, NCI-H1993
Protocol: as §1, §2

AN3-CA = assay: as above; format: cell-based; conditions: Human endometrial cancer, read-out: Inhibitory activity (IC50) on growth in vitro, AN3-CA
Excerpt: Test Example 3. Measurement of the Inhibitory Activity of the Present Compound on the Growth of Various Types of CDK9-Positive Tumor Cell Lines In Vitro
as §2, with “Tumor cell line is an effective cell model for studying the inhibitory activity of a drug on tumor growth in vitro. The” for “The”
Drug treatment, MTT assay and IC50 calculation were performed in accordance with Test Example 1.

[1] = MOLM-13, MOLM13 cells, cultured 3 to 6 days, CCK8, read-out: IC50 of the compound for inhibiting cell growth, MOLM13 cells

Work on `Cc1cc(Nc2ncc(Cl)c(-n3cc(C(N)=O)c4ccccc43)n2)ccc1N1CCN(C(C)C)CC1` [Compound 60, 1-{5-chloro-2-[4-(4-isopropyl-piperazin-1-yl)-3-methyl-phenylamino]-pyrimidin-4-yl}-1H-indole-3-carboxamide] yielded an IC50 (MOLM13 cells; [1]) of under 1 nM, an IC50 (CDK9/CyclinK kinase) of 1 to 10 nM and an IC50 (A375) of 100 to 1000 nM. It also gave an IC50 (BT-549) of 10 to 100 nM, an IC50 (CAL-120) of 1 to 10 nM and an IC50 (Colo205) of 100 to 1000 nM. For the same compound, the IC50 (HCC1954) was 1 to 10 nM, the IC50 (HCT-116) was 100 to 1000 nM and the IC50 (HO8910PM) was 10 to 100 nM. It also gave an IC50 (KYSE70) of 100 to 1000 nM, an IC50 (Kasumi-1) of 1 to 10 nM and an IC50 (LN229) of 100 to 1000 nM. The IC50 (MFM-223) was 10 to 100 nM, the IC50 (Pfeiffer) was 10 to 100 nM and the IC50 (SK-BR-3) was 1 to 10 nM. It also gave an IC50 (Sk-ov-3) of 10 to 100 nM.

With `NC(=O)c1cn(-c2nc(Nc3cccc(N4CCN(C5CCOCC5)CC4)c3)ncc2F)c2ccccc12` [Compound 140, 1-(5-fluoro-2-{3-[4-(tetrahydro-pyran-4-yl)-piperazin-1-yl]-phenylamino}-pyrimidin-4-yl)-1H-indole-3-carboxamide] the IC50 (MOLM13 cells; [1]) was under 1 nM, the IC50 (A375) was 1 to 10 nM and the IC50 (BT-549) was under 1 nM. For the same compound, the IC50 (CAL-120) was under 1 nM, the IC50 (Colo205) was 1 to 10 nM and the IC50 (HCC1954) was under 1 nM. The IC50 (HCT-116) was 1 to 10 nM, the IC50 (HO8910PM) was under 1 nM and the IC50 (KYSE70) was 1 to 10 nM. The IC50 (Kasumi-1) was 1 to 10 nM, the IC50 (LN229) was 1 to 10 nM and the IC50 (MFM-223) was under 1 nM. It also gave an IC50 (NCI-H1993) of 1 to 10 nM, an IC50 (Pfeiffer) of under 1 nM and an IC50 (SK-BR-3) of under 1 nM. The IC50 (Sk-ov-3) was under 1 nM and the IC50 (AN3-CA) was under 1 nM.

For `CC(C)N1CCN(c2cccc(Nc3ncc(F)c(-n4cc(C(N)=O)c5ccccc54)n3)c2)CC1` [Compound 144, 1-{5-fluoro-2-[3-(4-isopropyl-piperazin-1-yl)-phenylamino]-pyrimidin-4-yl}-1H-indole-3-carboxamide], the IC50 (MOLM13 cells; [1]) was under 1 nM, the IC50 (A375) was 1 to 10 nM and the IC50 (BT-549) was under 1 nM. For the same compound, the IC50 (CAL-120) was under 1 nM, the IC50 (Colo205) was 1 to 10 nM and the IC50 (HCC1954) was under 1 nM. It also gave an IC50 (HCT-116) of 1 to 10 nM, an IC50 (HO8910PM) of under 1 nM and an IC50 (KYSE70) of 1 to 10 nM. For the same compound, the IC50 (Kasumi-1) was under 1 nM, the IC50 (LN229) was under 1 nM and the IC50 (MFM-223) was under 1 nM. It also gave an IC50 (NCI-H1993) of 1 to 10 nM, an IC50 (Pfeiffer) of under 1 nM and an IC50 (SK-BR-3) of under 1 nM. The IC50 (Sk-ov-3) was under 1 nM and the IC50 (AN3-CA) was under 1 nM.

Work on `CCN1CCN(c2cccc(Nc3ncc(F)c(-n4cc(C(N)=O)c5cc(OC)ccc54)n3)c2)CC1` [Compound 152, 1-{2-[3-(4-ethyl-piperazin-1-yl)-phenylamino]-5-fluoro-pyrimidin-4-yl}-5-methoxy-1H-indole-3-carboxamide] yielded an IC50 (MOLM13 cells; MOLM-13, read-out: IC50 of the compound for inhibiting cell growth, MOLM13 cells) of under 1 nM, an IC50 (CDK9/CyclinK kinase) of under 1 nM and an IC50 (A375) of 1 to 10 nM. The IC50 (BT-549) was under 1 nM, the IC50 (CAL-120) was under 1 nM and the IC50 (Colo205) was 1 to 10 nM. The IC50 (HCC1954) was under 1 nM, the IC50 (HCT-116) was 1 to 10 nM and the IC50 (HO8910PM) was under 1 nM. For the same compound, the IC50 (KYSE70) was 1 to 10 nM, the IC50 (Kasumi-1) was 1 to 10 nM and the IC50 (LN229) was 1 to 10 nM. It also gave an IC50 (MFM-223) of under 1 nM, an IC50 (NCI-H1993) of 1 to 10 nM and an IC50 (Pfeiffer) of under 1 nM. It also gave an IC50 (SK-BR-3) of under 1 nM, an IC50 (Sk-ov-3) of under 1 nM and an IC50 (AN3-CA) of under 1 nM.

In the case of `CCN1CCN(c2cccc(Nc3ncc(F)c(-n4cc(C(N)=O)c5cc(F)ccc54)n3)c2)CC1` [Compound 161, 1-{2-[3-(4-ethyl-piperazin-1-yl)-phenylamino]-5-fluoro-pyrimidin-4-yl}-5-fluoro-1H-indole-3-carboxamide], the IC50 (MOLM13 cells; [1]) is reported as under 1 nM, the IC50 (CDK9/CyclinK kinase) is reported as under 1 nM and the IC50 (A375) is reported as 1 to 10 nM. It also gave an IC50 (BT-549) of under 1 nM, an IC50 (CAL-120) of under 1 nM and an IC50 (Colo205) of 1 to 10 nM. For the same compound, the IC50 (HCC1954) was under 1 nM, the IC50 (HCT-116) was 1 to 10 nM and the IC50 (HO8910PM) was under 1 nM. The IC50 (KYSE70) was 1 to 10 nM, the IC50 (Kasumi-1) was 1 to 10 nM and the IC50 (LN229) was 1 to 10 nM. It also gave an IC50 (MFM-223) of under 1 nM, an IC50 (NCI-H1993) of 10 to 100 nM and an IC50 (Pfeiffer) of under 1 nM. The IC50 (SK-BR-3) was under 1 nM and the IC50 (Sk-ov-3) was under 1 nM.
